Consider six molecules from US7012088B2, “Indolone oxazolidinones and derivatives thereof” (Pharmacia & Upjohn Company, priority 2003, dated 2006).

In brackets after ≈: the same amount, converted by molar mass.

One series deals with S. aureus SAUR 9213. In words: MIC by standard agar dilution method, S. aureus. The series is classed as cell-based. The conditions noted are these: Staphylococcus aureus, SAUR9213, Mueller Hinton agar, overnight at 35° C. From the text: (§1) The oxazolidinone antibacterial agents of this invention have useful activity against a variety of organisms. The in vitro activity of compounds of this invention can be assessed by standard testing procedures such as the determination of minimum inhibitory concentration (MIC) by agar dilution as described in “Approved Standard. Methods for Dilution Antimicrobial Susceptibility Tests for Bacteria That Grow Aerobically”, 3rd. ed., published 1993 by the National Committee for Clinical Laboratory Standards, Villanova, Pa., USA. The in vitro MICs of test compounds were determined by a standard agar dilution method. A stock drug solution of each analog was prepared in the preferred solvent, usually DMSO:H2O (1:3). Serial 2-fold dilutions of each sample are made using 1.0 ml aliquots of sterile distilled water. To each 1.0 ml aliquot of drug was added 9 ml of molten Mueller Hinton agar medium. The drug-supplemented agar was mixed, poured into 15×100 mm petri dishes, and allowed to solidify and dry prior to inoculation. Vials of each of the test organisms are maintained frozen in the vapor phase of a liquid nitrogen freezer. Test cultures are grown overnight at 35° C. on the medium appropriate for the organism. Colonies are harvested with a sterile swab, and cell suspensions are prepared in Trypticase Soy broth (TSB) to equal the turbidity of a 0.5 McFarland standard. A 1:20 dilution of each suspension was made in TSB. The plates containing the drug supplemented agar are inoculated with a 0.001 ml drop of the cell suspension using a Steers replicator, yielding approximately 10^4 to 10^5 cells per spot. The plates are incubated overnight at 35° C. Following incubation the Minimum Inhibitory Concentration (MIC μg/ml), the lowest concentration of drug that inhibits visible growth of the organism, was read and recorded.
(In general: In agar dilution the substance is mixed into plates at graded concentrations.)

In a further series the test system is S. pneumoniae SPNE 9912. In words: MIC by standard agar dilution method, S. pneumoniae. The series is classed as cell-based. The conditions noted are these: Streptococcus pneumoniae, SPNE9912, Mueller Hinton agar, overnight at 35° C.
Text: as §1

`CNC(=O)[C@H]1CN(c2ccc3c(c2)C(F)(F)C(=O)N3C)C(=O)O1` [Example 1, (5R)-(−)-3-(3,3-Difluoro-2,3-dihydro-1-methyl-2-oxo-1H-indol-5-yl)-N-methyl-2-oxo-5-oxazolidinecarboxamide] registered a melting point of 242.5 to 245 °C. The molecule further showed an MIC in the series with S. aureus SAUR 9213 of 2 µg/mL (≈ 6.15 µM). This molecule returned an MIC in the series with S. pneumoniae SPNE 9912 of 2 µg/mL (≈ 6.15 µM).
`CN1C(=O)C(F)(F)c2cc(N3C[C@H](C(N)=O)OC3=O)ccc21` [Example 2, (5R)-(−)-3-(3,3-difluoro-2,3-dihydro-1-methyl-2-oxo-1H-indol-5-yl)-2-oxo-5-oxazolidinecarboxamide]: the melting point was 274 to 277 °C (dec.). In the series with S. aureus SAUR 9213, this molecule had an MIC of 2 µg/mL (≈ 6.43 µM). Further, the MIC in the series with S. pneumoniae SPNE 9912 is 1 to 2 µg/mL (≈ 3.21 to 6.43 µM).
For `CCN1C(=O)C(F)(F)c2cc(N3C[C@H](C(=O)NC)OC3=O)ccc21` [Example 4, (5R)-(−)-3-(3,3-Difluoro-2,3-dihydro-1-ethyl-2-oxo-1H-indol-5-yl)-N-methyl-2-oxo-5-oxazolidinecarboxamide], the melting point lay in the range of 211 to 213 °C. In the series on S. aureus SAUR 9213, this molecule had an MIC of 8 µg/mL (≈ 23.6 µM). The MIC with S. pneumoniae SPNE 9912 was 4 µg/mL (≈ 11.8 µM).
`CCN1C(=O)C(F)(F)c2cc(N3C[C@H](C(N)=O)OC3=O)ccc21` [Example 3, (5R)-(−)-3-(3,3-difluoro-2,3-dihydro-1-ethyl-2-oxo-1H-indol-5-yl)-2-oxo-5-oxazolidinecarboxamide] yielded a melting point of 201 to 203 °C. In addition, 8 µg/mL (≈ 24.6 µM) was the least that counted as inhibitory against S. aureus SAUR 9213 (MIC). Also, in the series with S. pneumoniae SPNE 9912, the lowest concentration to inhibit growth (MIC) was 4 µg/mL (≈ 12.3 µM).
The molecule `CCN1C(=O)C(F)(F)c2cc(N3C[C@H](CNC(C)=O)OC3=O)ccc21` [Example 6, N-[[(5S)-(−)-3-(3,3-Difluoro-2,3-dihydro-1-ethyl-2-oxo-1H-indol-5-yl)-2-oxo-5-oxazolidinyl]methyl]acetamide] registered a melting point of 139 to 141 °C. This molecule came in with an MIC against S. aureus SAUR 9213 of 8 µg/mL (≈ 22.6 µM). This molecule also had an MIC in the series on S. pneumoniae SPNE 9912 of 2 µg/mL (≈ 5.66 µM).
In the same order, the values of `CC(=O)NC[C@H]1CN(c2ccc3c(c2)C(F)(F)C(=O)N3C)C(=O)O1` [Example 5, N-[[(5S)-(−)-3-(3,3-Difluoro-2,3-dihydro-1-methyl-2-oxo-1H-indol-5-yl)-2-oxo-5-oxazolidinyl]methyl]acetamide] are 125 to 127 °C, 2 µg/mL (≈ 5.89 µM) and 1 µg/mL (≈ 2.95 µM).

In general, MIC refers to the smallest concentration in the dilution series that meets the test's criterion for growth inhibition. The low end stands for inhibition by little substance, the high end for a need for much substance. As usually defined, the melting point is the temperature of the solid-liquid transition.
